# Measurements taken from paper PMC12668310, “High‐Throughput Synthesis and Screening of a Cyanimide Library Identifies Selective Inhibitors of ISG15‐Specific Protease mUSP18” (Angewandte Chemie (International Ed. in English), 2025).
# Target: T1, mUSP18 (Mus musculus, UniProt Q9WTV6)
# T1 construct: (46-368); His-tag (N); made in house
# T1 sequence (Q9WTV6 46-368): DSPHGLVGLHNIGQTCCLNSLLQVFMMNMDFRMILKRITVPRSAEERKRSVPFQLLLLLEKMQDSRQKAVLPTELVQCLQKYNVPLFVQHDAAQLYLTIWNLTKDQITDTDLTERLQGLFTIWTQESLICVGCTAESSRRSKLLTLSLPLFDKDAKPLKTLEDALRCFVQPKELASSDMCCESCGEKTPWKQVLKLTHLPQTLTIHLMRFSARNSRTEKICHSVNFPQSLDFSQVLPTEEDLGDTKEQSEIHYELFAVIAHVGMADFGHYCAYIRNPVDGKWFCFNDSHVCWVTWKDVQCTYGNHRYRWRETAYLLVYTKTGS
# Assay: Covalent complex formation, intact protein mass spectrometry
# Format: binding, murine
# Conditions: 1.4 μM mUSP18, 14 µM compound, 30 min
# Protocol: We further explored the potential of our mUSP18 hits. […] Based on previous data, these cyanimides likely bind to mUSP18 in a covalent manner. Indeed, intact protein mass spectrometry analysis confirmed the formation of a covalent stoichiometric mUSP18‐BB07CA902 complex, showing a mass difference of 311 Da, which corresponds to the addition of exactly one molecule of BB07CA902 (Figures 5c, S9). […] (Figure S9).
# High-throughput screening
# The screens were performed at room temperature in “flat bottom, non-treated, black […]
# µM. The compounds (10 nL each) were transferred from the 1 mM daughter plates to the […]
# Four wells containing DMSO
# (10 nL) and four wells containing NEM (10 mM final concentration) were used in each plate […]
# The percentage inhibition was calculated for each well using the […]
# Where FIx is the fluorescence intensity of each well, FIpos is the average fluorescence intensity of the positive (NEM) control wells, and FIneg is the average fluorescence intensity of the negative (DMSO) control wells. […]
# Samples were then diluted 3-fold with water and analyzed by mass spectrometry by injecting 2 μL into a Waters XEVO-G2 XS Q-TOF mass spectrometer equipped with an electrospray ion source in positive mode (capillary voltage 1.2 kV, desolvation gas flow 900 L/h, T = 60 °C) with a resolution of R = 26,000. […]
smiles,measurement,value
Cc1cc(C(=O)N[C@H]2C[C@@H]3CN(C#N)C[C@@H]3C2)ccc1C(C)C [BB07CA902],mass difference of covalent stoichiometric mUSP18-inhibitor complex,311 Da
